Reference: PMC9291665, “Discovery and SAR analysis of 5-chloro-4-((substituted phenyl)amino)pyrimidine bearing histone deacetylase inhibitors” (Journal of Enzyme Inhibition and Medicinal Chemistry, 2022)

Experiments:
[1] = tested on: Hela nucleus extract containing a mixture of HDAC isoforms; assay: HDAC enzyme inhibitory screening against Hela nucleus extract; type: biochemical; settings: at concentration of 1.0 µM, mean of three experiments
Protocol: The synthesised molecules were firstly screened against Hela nucleus extract containing a mixture of HDAC isoforms.
(§1) All HDAC enzymes were purchased from BPS Bioscience. In short, 60 µL of recombinant HDAC enzyme solution was mixed with various concentrations of test compound (40 µL), and then incubated at 37 °C for 30 minutes. The reaction was terminated by adding 100 µL of imaging agent containing trypsin and trichostatin A (TSA). After standing for 20 min, the fluorescence intensity was measured at the excitation and emission wavelengths of 360 and 460 nm with a microplate reader. The inhibition rate was calculated from the fluorescence intensity readings of the test wells relative to the control wells, and the IC50 curve and value were determined by GraphPad Prism 6.0 software.

K562 cells [2] = assay: In vitro antiproliferative assay (CCK-8), K562; type: cell-based; settings: Homo sapiens
Protocol: (§2) The proliferation of cancer cells was tested by CCK-8 assay. Briefly, cells were seeded in 96-well plate with about 5 × 10^3 cells in each well. The cells were treated with tested compounds after 24 h of incubation. CCK-8 reagent ([…]) was added to each well after 72 h of incubation, and cells were incubated at 37 °C for 4 h. The light absorbance at 450 nm was measured by using an Opsys microplate reader (Dynex Technologies, Chantilly, VA, USA).

HDAC1 = biological target: T1, HDAC1 (Homo sapiens, UniProt Q13547); assay: HDAC enzyme inhibitory selectivity test, HDAC1; type: biochemical
T1 construct: purchased BPS Bioscience
Protocol: (§3) Therefore, molecule L20 was evaluated in the HDAC enzyme inhibitory selectivity test against HDAC1, 2, 3 and 6 (Table 2).
as §1

HDAC2 = biological target: T2, HDAC2 (Homo sapiens, UniProt Q92769); assay: HDAC enzyme inhibitory selectivity test, HDAC2; type: biochemical
T2 construct: purchased BPS Bioscience
Protocol: as §3, §1

HDAC3 = biological target: T3, HDAC3 (Homo sapiens, UniProt O15379); assay: HDAC enzyme inhibitory selectivity test, HDAC3; type: biochemical
T3 construct: purchased BPS Bioscience
Protocol: as §3, §1

HDAC6 = biological target: T4, HDAC6 (Homo sapiens, UniProt Q9UBN7); assay: HDAC enzyme inhibitory selectivity test, HDAC6; type: biochemical; settings: mean of three experiments
T4 construct: purchased BPS Bioscience
T4 sequence (Q9UBN7 1-1215): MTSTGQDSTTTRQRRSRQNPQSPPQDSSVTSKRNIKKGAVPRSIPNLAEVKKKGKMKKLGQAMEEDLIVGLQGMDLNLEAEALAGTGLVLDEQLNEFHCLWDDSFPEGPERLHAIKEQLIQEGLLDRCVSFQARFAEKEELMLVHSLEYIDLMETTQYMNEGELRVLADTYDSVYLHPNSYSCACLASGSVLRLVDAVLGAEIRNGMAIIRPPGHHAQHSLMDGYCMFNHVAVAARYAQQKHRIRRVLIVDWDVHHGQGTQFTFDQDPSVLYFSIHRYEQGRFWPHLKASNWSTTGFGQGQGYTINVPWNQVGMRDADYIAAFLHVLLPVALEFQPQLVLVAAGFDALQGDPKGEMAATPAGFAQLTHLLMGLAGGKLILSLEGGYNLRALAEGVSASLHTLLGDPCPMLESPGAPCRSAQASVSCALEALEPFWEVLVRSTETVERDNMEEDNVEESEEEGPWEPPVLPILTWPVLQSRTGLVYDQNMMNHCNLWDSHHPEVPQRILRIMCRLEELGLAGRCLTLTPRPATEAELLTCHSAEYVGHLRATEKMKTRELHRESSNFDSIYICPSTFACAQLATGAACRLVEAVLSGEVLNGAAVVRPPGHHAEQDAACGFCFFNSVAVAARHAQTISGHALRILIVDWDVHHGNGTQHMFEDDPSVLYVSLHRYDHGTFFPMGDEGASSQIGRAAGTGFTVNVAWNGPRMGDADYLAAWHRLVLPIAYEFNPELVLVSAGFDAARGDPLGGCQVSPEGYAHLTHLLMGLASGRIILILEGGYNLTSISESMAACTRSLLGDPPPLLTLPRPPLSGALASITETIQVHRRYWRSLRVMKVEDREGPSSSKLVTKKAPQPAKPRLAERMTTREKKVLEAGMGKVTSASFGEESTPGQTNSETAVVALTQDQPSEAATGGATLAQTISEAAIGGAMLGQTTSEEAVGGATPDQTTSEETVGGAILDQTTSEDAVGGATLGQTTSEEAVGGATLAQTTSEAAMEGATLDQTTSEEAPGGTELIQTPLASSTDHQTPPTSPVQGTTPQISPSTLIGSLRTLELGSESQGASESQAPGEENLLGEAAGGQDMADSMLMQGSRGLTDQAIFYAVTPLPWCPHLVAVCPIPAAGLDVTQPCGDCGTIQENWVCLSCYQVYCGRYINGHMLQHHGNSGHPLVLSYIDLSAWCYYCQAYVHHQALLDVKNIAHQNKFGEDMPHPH
Protocol: as §3, §1

U266 = assay: In vitro antiproliferative assay (CCK-8), U266; type: cell-based; settings: Homo sapiens, U-266, CCK-8, 72 h
Protocol: as §2

U937 = assay: In vitro antiproliferative assay (CCK-8), U937; type: cell-based; settings: Homo sapiens, U-937, CCK-8, 72 h
Protocol: as §2

C6 = assay: In vitro antiproliferative assay (CCK-8), C6; type: cell-based; settings: Rattus norvegicus, CCK-8, 72 h
Protocol: as §2

Fadu = assay: In vitro antiproliferative assay (CCK-8), Fadu; type: cell-based; settings: Homo sapiens, CCK-8, 72 h
Protocol: as §2

MDA-MB-231 = assay: In vitro antiproliferative assay (CCK-8), MDA-MB-231; type: cell-based; settings: Homo sapiens, CCK-8, 72 h
Protocol: (§4) Compound L20 with good performances in both enzyme and K562 cell inhibitory tests were selected for further antiproliferative assay against various cell lines. K562, U266, U937, C6, Fadu, MDA-MB-231, MDA-MB-468, A549, A2780 and HepG2 cell lines were used in the cell-based anticancer evaluation of L20.
as §2, with “USA). Results are illustrated as percent of cell viability normalised to DMSO-treated control cells.” for “USA).”

MDA-MB-468 = assay: In vitro antiproliferative assay (CCK-8), MDA-MB-468; type: cell-based; settings: Homo sapiens, CCK-8, 72 h
Protocol: as §4
as §2, with “USA). Results are illustrated as percent of cell viability normalised to DMSO-treated control cells.” for “USA).”

A549 = assay: In vitro antiproliferative assay (CCK-8), A549; type: cell-based; settings: Homo sapiens, CCK-8, 72 h
Protocol: as §2

A2780 = assay: In vitro antiproliferative assay (CCK-8), A2780; type: cell-based; settings: Homo sapiens, CCK-8, 72 h
Protocol: as §2

HepG2 = assay: In vitro antiproliferative assay (CCK-8), HepG2; type: cell-based; settings: Homo sapiens, CCK-8, 72 h
Protocol: as §2

K562 cells [3] = assay: Cell cycle analysis by flow cytometry (PI); settings: 24 h, first peak in Figure 5
Protocol: After treatment, cells were collected and fixed with 70% pre-cold ethanol in PBS and stored at −20 °C overnight. Then washed the cells with PBS twice, and incubated with 100 µg/mL RNase I (Solarbio, China) at 37 °C for 1 h, stained with propidium iodide (PI, 10 µg/mL, Solarbio, China) for 30 min avoid light at room temperature. Finally, DNA content was measured by flow cytometry (FACSAriaIII, Becton Dickinson, USA). The data were analysed and fitted by ModFit software.

K562 cells [4] = assay: Cell apoptosis analysis by flow cytometry (Annexin V-BV421 / 7-AAD); settings: 24 h, control 1.14%
Protocol: Cells were incubated with Annexin V-BV421 (Becton Dickinson, USA) and 7-AAD (Becton Dickinson, USA) double labelling for 30 min in the dark at room temperature and measured by flow cytometry (FACSAriaIII, Becton Dickinson, USA). The data was analysed using Flowjo-V10 software.

T3 sequence (O15379 whole entry): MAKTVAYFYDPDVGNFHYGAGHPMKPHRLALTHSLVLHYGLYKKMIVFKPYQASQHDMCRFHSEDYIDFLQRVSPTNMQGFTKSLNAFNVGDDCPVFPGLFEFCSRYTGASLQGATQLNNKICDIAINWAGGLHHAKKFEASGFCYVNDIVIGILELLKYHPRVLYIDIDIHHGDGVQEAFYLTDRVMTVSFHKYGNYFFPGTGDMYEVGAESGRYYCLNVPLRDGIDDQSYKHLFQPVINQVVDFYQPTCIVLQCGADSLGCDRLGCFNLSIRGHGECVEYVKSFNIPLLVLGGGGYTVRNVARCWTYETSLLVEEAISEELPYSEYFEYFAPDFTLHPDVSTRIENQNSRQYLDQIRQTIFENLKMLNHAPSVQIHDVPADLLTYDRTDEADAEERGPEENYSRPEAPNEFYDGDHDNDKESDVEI
T3 sequence (Q9Y618 395-489 partner limits assumed): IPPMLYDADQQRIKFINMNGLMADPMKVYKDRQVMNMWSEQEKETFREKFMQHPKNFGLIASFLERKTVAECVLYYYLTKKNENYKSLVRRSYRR
T1 sequence (Q13547 whole entry): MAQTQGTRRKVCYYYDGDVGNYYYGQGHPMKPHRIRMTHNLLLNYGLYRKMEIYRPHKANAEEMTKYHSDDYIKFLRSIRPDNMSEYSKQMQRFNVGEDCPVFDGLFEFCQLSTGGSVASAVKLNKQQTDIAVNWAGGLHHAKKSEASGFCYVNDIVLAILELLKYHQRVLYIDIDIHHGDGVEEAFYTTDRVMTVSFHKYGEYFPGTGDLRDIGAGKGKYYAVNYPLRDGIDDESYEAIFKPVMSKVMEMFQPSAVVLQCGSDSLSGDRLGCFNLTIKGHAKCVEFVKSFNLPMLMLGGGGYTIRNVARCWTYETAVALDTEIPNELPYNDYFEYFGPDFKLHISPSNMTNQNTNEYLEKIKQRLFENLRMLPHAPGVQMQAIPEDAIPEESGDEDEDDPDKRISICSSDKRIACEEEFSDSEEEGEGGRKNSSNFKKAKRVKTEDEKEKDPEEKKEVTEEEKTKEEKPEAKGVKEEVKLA
T2 sequence (Q92769 whole entry): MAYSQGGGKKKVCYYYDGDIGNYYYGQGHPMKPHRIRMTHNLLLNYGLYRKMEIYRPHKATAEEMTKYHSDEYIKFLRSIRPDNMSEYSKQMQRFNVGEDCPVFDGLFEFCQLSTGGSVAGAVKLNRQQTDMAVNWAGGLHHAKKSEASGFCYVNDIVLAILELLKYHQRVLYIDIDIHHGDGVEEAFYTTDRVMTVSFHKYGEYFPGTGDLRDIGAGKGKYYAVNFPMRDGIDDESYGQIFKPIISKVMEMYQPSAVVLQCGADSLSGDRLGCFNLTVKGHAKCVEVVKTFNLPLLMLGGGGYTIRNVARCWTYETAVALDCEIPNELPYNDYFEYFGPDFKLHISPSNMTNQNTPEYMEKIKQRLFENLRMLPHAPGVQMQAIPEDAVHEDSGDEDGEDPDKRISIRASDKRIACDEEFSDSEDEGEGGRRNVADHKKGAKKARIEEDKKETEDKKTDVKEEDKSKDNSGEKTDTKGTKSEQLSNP

COc1cc(Nc2nc(N3CCN(c4ncc(C(=O)NO)cn4)CC3)ncc2Cl)cc(OC)c1 [Compound L20, 2–(4-(5-chloro-4-((3,5-dimethoxyphenyl)amino)pyrimidin-2-yl)piperazin-1-yl)-N-hydroxypyrimidine-5-carboxamide]
HDACs percentage inhibitory rate [1]: 72.52 ± 1.26% | IC50 (K562 cells [2]; CCK-8, 72 h): 0.34 ± 0.02 µM | inhibition at 1 µM (K562 cells [2]; at concentration of 1.0 µM, mean of three experiments, read-out: K562 percentage inhibitory rate): 74.2 ± 1.18% | selectivity index HDAC1 compared with HDAC6 (HDAC1; HDAC1 vs HDAC6): > 1462 | IC50 (HDAC1; mean of three experiments): 0.684 ± 0.016 µM | selectivity index HDAC2 compared with HDAC6 (HDAC2; HDAC2 vs HDAC6): > 392 | IC50 (HDAC2; mean of three experiments): 2.55 ± 0.079 µM | selectivity index HDAC3 compared with HDAC6 (HDAC3; HDAC3 vs HDAC6): > 4608 | IC50 (HDAC3; mean of three experiments): 0.217 ± 0.008 µM | IC50 (HDAC6): > 1000 µM | IC50 (U266): 0.28 ± 0.01 µM | IC50 (U937): 0.76 ± 0.03 µM | IC50 (C6): 1.98 ± 0.1 µM | IC50 (Fadu): 1.42 ± 0.05 µM | IC50 (MDA-MB-231): 1.63 ± 0.06 µM | IC50 (MDA-MB-468): 2.23 ± 0.09 µM | IC50 (A549): 1.06 ± 0.03 µM | IC50 (A2780): 0.97 ± 0.02 µM | IC50 (HepG2): 3.17 ± 0.15 µM | G0/G1 phase ratio of K562 cells (K562 cells [3]; 1 µM): 19.34% | G0/G1 phase ratio of K562 cells (K562 cells [3]; 2 µM): 44.85% | apoptotic rate of K562 cells (K562 cells [4]; 1 µM): 2.51% | apoptotic rate of K562 cells (K562 cells [4]; 2 µM): 11.87% | apoptotic rate of K562 cells (K562 cells [4]; 4 µM): 17.60%
